Residues, ends and D or L forms follow the SMILES beside them.
Key:
[1] = tested on: patients with chronic constipation; experiment: Trial 2 four-week Randomized Withdrawal Period; assay type: in vivo, human; set-up: Straining, Change From Baseline, Mean / Abdominal Discomfort, Change From Baseline, Mean / Bloating, Change From Baseline, Mean / Constipation Severity, Change From Baseline, Mean / Global Relief of Constipation Symptoms, Change From Baseline, Mean: scale not given here; settings: for Global Relief of Constipation Symptoms, Change From Baseline, Mean / Stool Consistency (BSFS), Change From Baseline, Mean / Straining, Change From Baseline, Mean / Weekly CSBM Rate, Change From Baseline, Mean / Weekly SBM Rate, Change From Baseline, Mean / Abdominal Discomfort, Change From Baseline, Mean / Bloating, Change From Baseline, Mean / Constipation Severity, Change From Baseline, Mean: RW Period
Experimental: Trial 2 was conducted in 642 patients and was identical to Trial 1 except that Trial 2 also included a four-week Randomized Withdrawal Period, defined below. During the two-week pretreatment (baseline) period, 68 percent of patients in Trial 2 had no CSBMs.
The Randomized Withdrawal (RW) Period is defined as the 4 weeks immediately following the Treatment Period. The beginning of the RW Period coincides with the end of the Treatment Period. Patients who were randomized to linaclotide in the Treatment Period and complete the 12 weeks of the Treatment Period were randomized to treatment with linaclotide or placebo in the RW Period. Patients who were randomized to placebo in the Treatment Period and complete the 12 weeks of the Treatment Period received 133 μg or 266 μg linaclotide in the RW Period.

[2] = Systemic linaclotide levels after oral administration; assay type: in vivo; settings: after oral administration at therapeutic dose levels
Text: (§1) Linaclotide is a peptide GC-C agonist that is orally administered and currently in clinical trials for treatment of irritable bowel syndrome with constipation (IBS-c) and CC.

CC = experiment: Phase 2b studies for CC, four-week treatment; assay type: in vivo; settings: throughout the four-week treatment period
Text: as §1

With `C[C@@H]1NC(=O)[C@@H]2CCCN2C(=O)[C@H](CC(N)=O)NC(=O)[C@@H]2CSSC[C@H](N)C(=O)N[C@H]3CSSC[C@H](NC1=O)C(=O)N[C@@H]([C@@H](C)O)C(=O)NCC(=O)N[C@H](C(=O)N[C@@H](Cc1ccc(O)cc1)C(=O)O)CSSC[C@H](NC(=O)[C@H](Cc1ccc(O)cc1)NC(=O)[C@H](CCC(=O)O)NC3=O)C(=O)N2` [Linaclotide, Cys1 Cys2 Glu3 Tyr4 Cys5 Cys6 Asn7 Pro8 Ala9 Cys10 Thr11 Gly12 Cys13 Tyr14] (HELM PEPTIDE1{C.C.E.Y.C.C.N.P.A.C.T.G.C.Y}$PEPTIDE1,PEPTIDE1,1:R3-6:R3|PEPTIDE1,PEPTIDE1,2:R3-10:R3|PEPTIDE1,PEPTIDE1,5:R3-13:R3$$$V2.0) the “Global Relief of Constipation Symptoms, Change From Baseline, Mean” value (“Global Relief … Change From Baseline, Mean” for short) ([1]; 133 μg/133 μg (n = 90)) was −1.3, the “Stool Consistency (BSFS), Change From Baseline, Mean” value ([1]; 133 μg/133 μg (n = 90)) was 1.9 and the “Straining, Change From Baseline, Mean” value ([1]; 133 μg/133 μg (n = 90)) was −1.1. The “Weekly CSBM Rate, Change From Baseline, Mean” value ([1]; 133 μg/133 μg (n = 90)) was 2.1, the “Weekly SBM Rate, Change From Baseline, Mean” value ([1]; 133 μg/133 μg (n = 90)) was 3.0 and the “Abdominal Discomfort, Change From Baseline, Mean” value ([1]; 133 μg/Placebo (n = 95)) was −0.4. For the same compound, the “Bloating, Change From Baseline, Mean” value ([1]; 133 μg/Placebo (n = 95)) was −0.4, the “Constipation Severity, Change From Baseline, Mean” value ([1]; 133 μg/Placebo (n = 95)) was −0.5 and the “Global Relief … Change From Baseline, Mean” value ([1]; 133 μg/Placebo (n = 95)) was −0.7. For the same compound, the “Stool Consistency (BSFS), Change From Baseline, Mean” value ([1]; 133 μg/Placebo (n = 95)) was 1.0, the “Straining, Change From Baseline, Mean” value ([1]; 133 μg/Placebo (n = 95)) was −0.8 and the “Weekly CSBM Rate, Change From Baseline, Mean” value ([1]; 133 μg/Placebo (n = 95)) was 1.0. The “Weekly SBM Rate, Change From Baseline, Mean” value ([1]; 133 μg/Placebo (n = 95)) was 1.2, the “Abdominal Discomfort, Change From Baseline, Mean” value ([1]; 266 μg/266 μg (n = 90)) was −0.7 and the “Bloating, Change From Baseline, Mean” value ([1]; 266 μg/266 μg (n = 90)) was −0.6. The “Constipation Severity, Change From Baseline, Mean” value ([1]; 266 μg/266 μg (n = 90)) was −0.9, the “Global Relief … Change From Baseline, Mean” value ([1]; 266 μg/266 μg (n = 90)) was −1.3 and the “Stool Consistency (BSFS), Change From Baseline, Mean” value ([1]; 266 μg/266 μg (n = 90)) was 1.6. The “Straining, Change From Baseline, Mean” value ([1]; 266 μg/266 μg (n = 90)) was −1.3, the “Weekly CSBM Rate, Change From Baseline, Mean” value ([1]; 266 μg/266 μg (n = 90)) was 2.2 and the “Weekly SBM Rate, Change From Baseline, Mean” value ([1]; 266 μg/266 μg (n = 90)) was 2.5. For the same compound, the “Abdominal Discomfort, Change From Baseline, Mean” value ([1]; 266 μg/Placebo (n = 86)) was −0.4, the “Bloating, Change From Baseline, Mean” value ([1]; 266 μg/Placebo (n = 86)) was −0.2 and the “Constipation Severity, Change From Baseline, Mean” value ([1]; 266 μg/Placebo (n = 86)) was −0.5. For the same compound, the “Global Relief … Change From Baseline, Mean” value ([1]; 266 μg/Placebo (n = 86)) was −0.8, the “Stool Consistency (BSFS), Change From Baseline, Mean” value ([1]; 266 μg/Placebo (n = 86)) was 0.8 and the “Straining, Change From Baseline, Mean” value ([1]; 266 μg/Placebo (n = 86)) was −0.8. For the same compound, the “Weekly CSBM Rate, Change From Baseline, Mean” value ([1]; 266 μg/Placebo (n = 86)) was 0.9, the “Weekly SBM Rate, Change From Baseline, Mean” value ([1]; 266 μg/Placebo (n = 86)) was 1.3 and the “Abdominal Discomfort, Change From Baseline, Mean” value ([1]; Placebo/266 μg (n = 177)) was −0.5. For the same compound, the “Bloating, Change From Baseline, Mean” value ([1]; Placebo/266 μg (n = 177)) was −0.5, the “Constipation Severity, Change From Baseline, Mean” value ([1]; Placebo/266 μg (n = 177)) was −1.0 and the “Global Relief … Change From Baseline, Mean” value ([1]; Placebo/266 μg (n = 177)) was −1.3. The “Stool Consistency (BSFS), Change From Baseline, Mean” value ([1]; Placebo/266 μg (n = 177)) was 1.9, the “Straining, Change From Baseline, Mean” value ([1]; Placebo/266 μg (n = 177)) was −1.2 and the “Weekly CSBM Rate, Change From Baseline, Mean” value ([1]; Placebo/266 μg (n = 177)) was 2.1. The “Weekly SBM Rate, Change From Baseline, Mean” value ([1]; Placebo/266 μg (n = 177)) was 3.7, the “bowel and abdominal symptoms and global assessments in patients continuing treatment” value ([1]; Randomized Withdrawal Period) was “sustained improvements” and the “frequencies of adverse events following discontinuing of treatment” value ([1]; Randomized Withdrawal Period) was “no evidence of rebound of CC symptoms or increase in the frequencies of adverse events”. For the same compound, the “rebound of CC symptoms following discontinuing of treatment” value ([1]; Randomized Withdrawal Period) was “no evidence of rebound of CC symptoms”, the “CC symptoms in patients initiating linaclotide treatment” value ([1]; Randomized Withdrawal Period, placebo then linaclotide) was “marked improvement” and the “incidence of adverse events in patients initiating linaclotide treatment” value ([1]; Randomized Withdrawal Period, versus those receiving linaclotide during first 4 weeks of Treatment Period) was “similar”. For the same compound, the “CSBM and SBM rates versus baseline rates after withdrawal” value ([1]; linaclotide for 12 weeks, re-randomized to placebo during 4 week withdrawal period) was “no decreases in CSBM (FIG. 2) or SBM rates (FIG. 3) below the baseline rates”, the levels seen systemically [2] was “no detectable levels” and the “effect on constipation, abdominal discomfort, and bloating” value (CC) was “reduced constipation, abdominal discomfort, and bloating”.

Reference: patent US20140349948A1, “Treatment of Chronic Constipation” (Forest Laboratories Holdings Limited, priority 2009, published 2014)
